From the supplement of paper PMC9013687
± gives the standard deviation of the averaged measurements.

Assays:
Danio rerio embryo [1] = assay: EC10 Pericard size_Increase; higher = less potent
Protocol: (§1)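 Zebrafish embryos (UFZ-OBI strain) were exposed from 2 hpf for 48 h (2 dpf) or 96 h (4 dpf) at 28 °C; spontaneous tail coiling was scored at 25 hpf. Morphological features from automated image analysis (FishInspector), heart rate and locomotor response were fitted with drc models. Quantal endpoints were dichotomised at 2.5 SD from controls and fitted with a log-logistic model; heart rate, pigmentation and STC were normalised to the replicate control mean. Betamethasone was tested as betamethasone dipropionate, diflorasone as diflorasone diacetate.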

Danio rerio embryo [2] = assay: spontaneous tail coiling frequency (coils/min/embryo); higher = more spontaneous movement; details: 25 hpf
Protocol: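 Spontaneous tail coilings of zebrafish embryos exposed from 2 hpf were recorded at 24-25 hpf in 1-min videos and detected by a KNIME workflow from grey-value variance. Betamethasone was tested as the dipropionate, diflorasone as the diacetate.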

Danio rerio embryo [3] = system: Danio rerio embryo
Protocol: as §1

Danio rerio embryo [4] = details: exposure time: 4 dpf
Protocol: as §1

Danio rerio embryo [5] = assay: EC10 Bladder size_Decrease; higher = less potent; details: exposure time: 4 dpf
Protocol: as §1

Danio rerio embryo [6] = assay: EC20 Otolith-eye distance_Decrease; higher = less potent; details: exposure time: 4 dpf
Protocol: as §1

Danio rerio embryo [7] = assay: EC50 Bladder size_Decrease; details: exposure time: 4 dpf
Protocol: as §1

Danio rerio embryo [8] = assay: EC10 Otolith-eye distance_Decrease; higher = less potent; details: exposure time: 4 dpf
Protocol: as §1

Danio rerio embryo [9] = assay: EC20 Pericard size_Increase; higher = less potent
Protocol: as §1

Danio rerio embryo [10] = assay: EC20 Bladder size_Decrease; higher = less potent; details: exposure time: 4 dpf
Protocol: as §1

Danio rerio embryo [11] = assay: EC20 LMR dark; higher = less potent; details: exposure time: 4 dpf
Protocol: as §1

Danio rerio embryo [12] = assay: EC50 Body length_Decrease
Protocol: as §1

Danio rerio embryo [13] = assay: EC20 Any effect; higher = less potent
Protocol: as §1

Danio rerio embryo [14] = assay: EC50 Eye-jaw distance_Decrease; details: exposure time: 4 dpf
Protocol: as §1

Danio rerio embryo [15] = assay: EC10 Eye-jaw distance_Decrease; higher = less potent; details: exposure time: 4 dpf
Protocol: as §1

Danio rerio embryo [16] = assay: EC10 Head trunk angle_Decrease; higher = less potent; details: exposure time: 2 dpf
Protocol: as §1

Danio rerio embryo [17] = assay: EC10 Curvature_Increase; higher = less potent
Protocol: as §1

Danio rerio embryo [18] = assay: EC10 Yolk sac size_Increase; higher = less potent; details: exposure time: 4 dpf
Protocol: as §1

Danio rerio embryo [19] = assay: EC10 Body length_Decrease; higher = less potent
Protocol: as §1

Danio rerio embryo [20] = assay: EC20 Eye-jaw distance_Decrease; higher = less potent; details: exposure time: 4 dpf
Protocol: as §1

Danio rerio embryo [21] = assay: EC50 Pericard size_Increase
Protocol: as §1

Danio rerio embryo [22] = assay: EC50 Curvature_Increase
Protocol: as §1

Danio rerio embryo [23] = assay: EC20 Yolk sac size_Increase; higher = less potent; details: exposure time: 4 dpf
Protocol: as §1

Danio rerio embryo [24] = assay: EC50 Otolith-eye distance_Decrease; details: exposure time: 4 dpf
Protocol: as §1

Danio rerio embryo [25] = assay: EC20 Curvature_Increase; higher = less potent
Protocol: as §1

Danio rerio embryo [26] = assay: EC10 Any effect; higher = less potent
Protocol: as §1

Danio rerio embryo [27] = assay: EC50 Yolk sac size_Increase; details: exposure time: 4 dpf
Protocol: as §1

Danio rerio embryo [28] = assay: EC20 Body length_Decrease; higher = less potent
Protocol: as §1

Danio rerio embryo [29] = assay: EC10 LMR dark; higher = less potent; details: exposure time: 4 dpf
Protocol: as §1

CC(C)(C)C(O)C(Oc1ccc(Cl)cc1)n1cncn1 (centres undefined) [Triadimenol]
Details	EC10 Any effect [µM]	EC10 Body length Decrease [µM]	EC10 Curvature Increase [µM]	EC10 Pericard size Increase [µM]	EC20 Any effect [µM]	EC20 Body length Decrease [µM]	EC20 Curvature Increase [µM]	EC20 Pericard size Increase [µM]	EC50 Any effect [µM]	EC50 Body length Decrease [µM]	EC50 Curvature Increase [µM]	EC50 Pericard size Increase [µM]	EC50 STC decrease [µM]	spontaneous tail coiling frequency
Danio rerio embryo [1], exposure time: 2 dpf	–	–	–	113	–	–	–	–	–	–	–	–	–	–
Danio rerio embryo [1], exposure time: 4 dpf	–	–	–	64.1	–	–	–	–	–	–	–	–	–	–
Danio rerio embryo [2], 10.6 µM	–	–	–	–	–	–	–	–	–	–	–	–	–	2.49
Danio rerio embryo [2], 21.1 µM	–	–	–	–	–	–	–	–	–	–	–	–	–	2.29
Danio rerio embryo [2], 42.3 µM	–	–	–	–	–	–	–	–	–	–	–	–	–	3.32 ± 0.78
Danio rerio embryo [2], 84.5 µM	–	–	–	–	–	–	–	–	–	–	–	–	–	2.24 ± 0.39
Danio rerio embryo [2], 118.3 µM	–	–	–	–	–	–	–	–	–	–	–	–	–	1.91
Danio rerio embryo [2], 169.1 µM	–	–	–	–	–	–	–	–	–	–	–	–	–	1.28 ± 0.37
Danio rerio embryo [2], 253.6 µM	–	–	–	–	–	–	–	–	–	–	–	–	–	0.06
Danio rerio embryo [2], 338.1 µM	–	–	–	–	–	–	–	–	–	–	–	–	–	0
Danio rerio embryo [3], exposure time: 2 dpf	–	–	–	–	–	–	–	–	133	–	–	–	–	–
Danio rerio embryo [3], exposure time: 4 dpf	–	–	–	–	–	–	–	–	45.5	–	–	–	–	–
Danio rerio embryo [3], exposure time: 25 h	–	–	–	–	–	–	–	–	–	–	–	–	169	–
Danio rerio embryo [9], exposure time: 2 dpf	–	–	–	–	–	–	–	146	–	–	–	–	–	–
Danio rerio embryo [9], exposure time: 4 dpf	–	–	–	–	–	–	–	71	–	–	–	–	–	–
Danio rerio embryo [12], exposure time: 2 dpf	–	–	–	–	–	–	–	–	–	169	–	–	–	–
Danio rerio embryo [12], exposure time: 4 dpf	–	–	–	–	–	–	–	–	–	106	–	–	–	–
Danio rerio embryo [13], exposure time: 2 dpf	–	–	–	–	127	–	–	–	–	–	–	–	–	–
Danio rerio embryo [13], exposure time: 4 dpf	–	–	–	–	31.7	–	–	–	–	–	–	–	–	–
Danio rerio embryo [17], exposure time: 2 dpf	–	–	116	–	–	–	–	–	–	–	–	–	–	–
Danio rerio embryo [17], exposure time: 4 dpf	–	–	67.2	–	–	–	–	–	–	–	–	–	–	–
Danio rerio embryo [19], exposure time: 2 dpf	–	71.8	–	–	–	–	–	–	–	–	–	–	–	–
Danio rerio embryo [19], exposure time: 4 dpf	–	71.3	–	–	–	–	–	–	–	–	–	–	–	–
Danio rerio embryo [21], exposure time: 2 dpf	–	–	–	–	–	–	–	–	–	–	–	225	–	–
Danio rerio embryo [21], exposure time: 4 dpf	–	–	–	–	–	–	–	–	–	–	–	84.3	–	–
Danio rerio embryo [22], exposure time: 2 dpf	–	–	–	–	–	–	–	–	–	–	136	–	–	–
Danio rerio embryo [22], exposure time: 4 dpf	–	–	–	–	–	–	–	–	–	–	117	–	–	–
Danio rerio embryo [25], exposure time: 2 dpf	–	–	–	–	–	–	123	–	–	–	–	–	–	–
Danio rerio embryo [25], exposure time: 4 dpf	–	–	–	–	–	–	82.4	–	–	–	–	–	–	–
Danio rerio embryo [26], exposure time: 2 dpf	123	–	–	–	–	–	–	–	–	–	–	–	–	–
Danio rerio embryo [26], exposure time: 4 dpf	25.7	–	–	–	–	–	–	–	–	–	–	–	–	–
Danio rerio embryo [28], exposure time: 2 dpf	–	–	–	–	–	98.6	–	–	–	–	–	–	–	–
Danio rerio embryo [28], exposure time: 4 dpf	–	–	–	–	–	82.5	–	–	–	–	–	–	–	–

Details	EC10 Bladder size Decrease [µM]	EC10 Eye-jaw distance Decrease [µM]	EC10 Head trunk angle Decrease [µM]	EC10 LMR dark [µM]	EC10 Otolith-eye distance Decrease [µM]	EC10 Yolk sac size Increase [µM]	EC20 Bladder size Decrease [µM]	EC20 Eye-jaw distance Decrease [µM]	EC20 LMR dark [µM]	EC20 Otolith-eye distance Decrease [µM]	EC20 Yolk sac size Increase [µM]	EC50 Bladder size Decrease [µM]	EC50 Eye-jaw distance Decrease [µM]	EC50 LMR dark [µM]	EC50 Otolith-eye distance Decrease [µM]	EC50 Yolk sac size Increase [µM]
Danio rerio embryo [4]	–	–	–	–	–	–	–	–	–	–	–	–	–	25.2	–	–
Danio rerio embryo [5]	19.9	–	–	–	–	–	–	–	–	–	–	–	–	–	–	–
Danio rerio embryo [6]	–	–	–	–	–	–	–	–	–	74.3	–	–	–	–	–	–
Danio rerio embryo [7]	–	–	–	–	–	–	–	–	–	–	–	20.7	–	–	–	–
Danio rerio embryo [8]	–	–	–	–	63.4	–	–	–	–	–	–	–	–	–	–	–
Danio rerio embryo [10]	–	–	–	–	–	–	20.2	–	–	–	–	–	–	–	–	–
Danio rerio embryo [11]	–	–	–	–	–	–	–	–	10.7	–	–	–	–	–	–	–
Danio rerio embryo [14]	–	–	–	–	–	–	–	–	–	–	–	–	51.4	–	–	–
Danio rerio embryo [15]	–	36.1	–	–	–	–	–	–	–	–	–	–	–	–	–	–
Danio rerio embryo [16]	–	–	94.5	–	–	–	–	–	–	–	–	–	–	–	–	–
Danio rerio embryo [18]	–	–	–	–	–	76.8	–	–	–	–	–	–	–	–	–	–
Danio rerio embryo [20]	–	–	–	–	–	–	–	41.2	–	–	–	–	–	–	–	–
Danio rerio embryo [23]	–	–	–	–	–	–	–	–	–	–	88.7	–	–	–	–	–
Danio rerio embryo [24]	–	–	–	–	–	–	–	–	–	–	–	–	–	–	97.6	–
Danio rerio embryo [27]	–	–	–	–	–	–	–	–	–	–	–	–	–	–	–	114
Danio rerio embryo [29]	–	–	–	6.51	–	–	–	–	–	–	–	–	–	–	–	–
